Like-named read-outs stand apart in the source and are kept apart here.
What was measured:
[1] = tested on: Pseudomonas aeruginosa efflux+ (MB9798), IMP-1; assay type: cell-based; settings: concentration restoring susceptibility to imipenem at 2 μg/mL in the presence of a class A, C, D serine β-lactamase inhibitor closely related to relebactam
In short: (§1)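 Microbroth MIC tests in PAO1-background strains with fixed imipenem and/or ceftazidime, usually at the CLSI breakpoint, plus fixed class A/C β-lactamase inhibitor against AmpC. MBL inhibitor titrated; concentration restoring susceptibility recorded and compared as fold difference between efflux+ MB9798 and efflux− MB9799.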

[2] = tested on: Pseudomonas aeruginosa efflux− (MB9799), IMP-1; assay type: cell-based; settings: concentration restoring susceptibility to imipenem at 2 μg/mL in the presence of a class A, C, D serine β-lactamase inhibitor closely related to relebactam
In short: as §1

[3] = tested on: Pseudomonas aeruginosa MB9798 vs MB9799; settings: ratio MITC95 PA_9798/MITC95 PA_9799
In short: as §1

VIM-1 = VIM-1 (Pseudomonas aeruginosa (strain ATCC 15692 / DSM 22644 / CIP 104116 / JCM 14847 / LMG 12228 / 1C / PRS 101 / PAO1), UniProt A0A0F7KYQ8); test: biochemical; settings: CCF2-FA substrate, 30 pM enzyme, 2 hours at 25° C.
In short: (§2)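 Class B activity is measured in the presence of compound by fluorescence with CCF2-FA after a 2-hour incubation at 25° C. IC50 is taken from a 4-parameter fit of semi-logarithmic dose-response data.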

IMP-1 = IMP-1 (Serratia marcescens, UniProt P52699); test: biochemical; assay type: biochemical; settings: fluorescence assay, CCF2-FA substrate, 2 pM enzyme, 2 hours at 25° C.; read-out: IMP-1 IC50
In short: as §2

NDM-1 = NDM-1 (Klebsiella pneumoniae, UniProt C7C422); test: biochemical; assay type: biochemical; settings: fluorescence assay, CCF2-FA substrate, 1 pM enzyme, 2 hours at 25° C.; read-out: NDM-1 IC50
In short: as §2

[4] = tested on: Klebsiella pneumoniae expressing VIM-1 (IHMA599644); assay type: cell-based; settings: with imipenem 1 μg/ml; 95% inhibition of bacterial growth
In short: (§3)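 Clinical strains grown overnight on blood agar at 35°C, colonies suspended in saline, diluted 1:100 into 1.1×CAMHB. Test compound titrated with imipenem at 1 μg/ml; incubated 22–24 h at 35°C, growth read by absorbance.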

[5] = tested on: Serratia marcescens expressing IMP-1 (CL5741); assay type: cell-based; settings: with imipenem 1 μg/ml; 95% inhibition of bacterial growth
In short: as §3

[6] = tested on: Escherichia coli expressing NDM-1 (CLB30005, CLB30016); assay type: cell-based; settings: with imipenem 1 μg/ml; 95% inhibition of bacterial growth
In short: as §3

[7] = fluorescence assay, read-out: VIM-1 IC50

Chain of IMP-1 (P52699 whole entry, looked up, species assumed): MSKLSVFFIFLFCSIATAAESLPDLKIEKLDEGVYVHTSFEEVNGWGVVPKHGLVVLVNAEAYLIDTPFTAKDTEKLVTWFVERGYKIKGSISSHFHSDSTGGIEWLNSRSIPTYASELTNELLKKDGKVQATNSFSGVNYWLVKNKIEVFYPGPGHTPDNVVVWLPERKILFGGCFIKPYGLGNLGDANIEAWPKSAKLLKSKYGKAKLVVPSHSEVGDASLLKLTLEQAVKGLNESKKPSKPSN
Chain of NDM-1 (C7C422 whole entry, looked up, species assumed): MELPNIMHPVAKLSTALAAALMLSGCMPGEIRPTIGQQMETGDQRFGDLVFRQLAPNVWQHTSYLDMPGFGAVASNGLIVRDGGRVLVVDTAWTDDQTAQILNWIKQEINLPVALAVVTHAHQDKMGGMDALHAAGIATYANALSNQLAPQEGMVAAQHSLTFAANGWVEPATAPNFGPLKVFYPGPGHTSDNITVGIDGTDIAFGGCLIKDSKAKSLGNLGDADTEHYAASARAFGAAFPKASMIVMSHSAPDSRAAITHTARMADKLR

| SMILES | P. aeruginosa expressing IMP-1, efflux + (MB9798) MITC95 [1] | P. aeruginosa expressing IMP-1, efflux − (MB9799) MITC95 [2] | Efflux ratio [3] | IC50 (VIM-1; VIM-1 IC50, fluorescence assay) | IC50 (IMP-1) | IC50 (NDM-1) | Klebsiella pneumoniae expressing VIM-1 (IHMA599644) MITC95 [4] | Serratia marcescens expressing IMP-1 (CL5741) MITC95 [5] | Escherichia coli expressing NDM-1 (CLB30016) MITC95 [6] | IC50 (VIM-1; [7]) |
| --- | --- | --- | --- | --- | --- | --- | --- | --- | --- | --- |
| CN(C)C(=O)CNS(=O)(=O)c1ccc(-c2cccc3sc(N)nc23)c(-c2nnn[nH]2)c1S(N)(=O)=O [Example 36, N^2-{[4-(2-amino-1,3-benzothiazol-4-yl)-2-sulfamoyl-3-(1H-tetrazol-5-yl)phenyl]sulfonyl}-N,N-dimethylglycinamide] | 3.125 µM | 3.125 µM | 1.00 | 166 pM | 247 pM | 36.9 pM | 12.5 µM | 3.125 µM | 25 µM | – |
| Nc1nc2c(-c3ccc(S(=O)(=O)NCC4(CO)CC4)c(S(N)(=O)=O)c3-c3nnn[nH]3)cccc2s1 [Example 37, 4-(2-amino-1,3-benzothiazol-4-yl)-N1-{[1-(hydroxymethyl)cyclopropyl]methyl}-3-(1H-tetrazol-5-yl)benzene-1,2-disulfonamide] | 6.25 µM | 6.25 µM | 1.00 | 198 pM | 287 pM | 7.69 pM | 12.5 µM | 3.125 µM | 12.5 µM | – |
| CN1CC2(CCN(S(=O)(=O)c3ccc(-c4cccc5sc(N)nc45)c(-c4nnn[nH]4)c3S(N)(=O)=O)C2)C1 [Example 38, 3-(2-amino-1,3-benzothiazol-4-yl)-6-[(2-methyl-2,6-diazaspiro[3.4]oct-6-yl)sulfonyl]-2-(1H-tetrazol-5-yl)benzenesulfonamide] | 3.125 µM | 3.125 µM | 1.00 | 2520 pM | 1430 pM | 424 pM | 12.5 µM | 3.125 µM | 12.5 µM | – |
| CN(C)C1CN(S(=O)(=O)c2ccc(-c3cccc4sc(N)nc34)c(-c3nnn[nH]3)c2S(N)(=O)=O)C1 [Example 39, 3-(2-amino-1,3-benzothiazol-4-yl)-6-{[3-(dimethylamino)azetidin-1-yl]sulfonyl}-2-(1H-tetrazol-5-yl)benzenesulfonamide] | 50 µM | 3.125 µM | 16.00 | – | 878 pM | 506 pM | 12.5 µM | 6.25 µM | 12.5 µM | 908 pM |
| Nc1nc2c(-c3ccc(S(=O)(=O)N4CC5CC4CS5(=O)=O)c(S(N)(=O)=O)c3-c3nnn[nH]3)cccc2s1 (stereo not drawn) [Example 40, 3-(2-amino-1,3-benzothiazol-4-yl)-6-[(2,2-dioxido-2-thia-5-azabicyclo[2.2.1]hept-5-yl)sulfonyl]-2-(1H-tetrazol-5-yl)benzenesulfonamide] | 50 µM | 3.125 µM | 16.00 | 2660 pM | 1860 pM | 1700 pM | 25 µM | 6.25 µM | 25 µM | – |
| CN(C1CCS(=O)(=O)C1)S(=O)(=O)c1ccc(-c2cccc3sc(N)nc23)c(-c2nnn[nH]2)c1S(N)(=O)=O (stereo not drawn) [Example 41, 4-(2-amino-1,3-benzothiazol-4-yl)-N^1-(1,1-dioxidotetrahydrothiophen-3-yl)-N~1~-methyl-3-(1H-tetrazol-5-yl)benzene-1,2-disulfonamide] | 25 µM | 3.125 µM | 8.00 | – | 810 pM | 938 pM | 25 µM | 6.25 µM | 25 µM | 1750 pM |
| Nc1nc2c(-c3ccc(S(=O)(=O)N4CC(F)(F)C4)c(S(N)(=O)=O)c3-c3nnn[nH]3)cccc2s1 [Example 42, 3-(2-amino-1,3-benzothiazol-4-yl)-6-[(3,3-difluoroazetidin-1-yl)sulfonyl]-2-(1H-tetrazol-5-yl)benzenesulfonamide] | 25 µM | 1.563 µM | 15.99 | 670 pM | 700 pM | 697 pM | 12.5 µM | 3.125 µM | 12.5 µM | – |
| Nc1nc2c(-c3ccc(S(=O)(=O)N4CCC(F)(F)C4)c(S(N)(=O)=O)c3-c3nnn[nH]3)cccc2s1 [Example 43, 3-(2-amino-1,3-benzothiazol-4-yl)-6-[(3,3-difluoropyrrolidin-1-yl)sulfonyl]-2-(1H-tetrazol-5-yl)benzenesulfonamide] | 100 µM | 1.563 µM | 63.98 | – | 1230 pM | 2070 pM | 100 µM | 6.25 µM | 25 µM | 1860 pM |
| Nc1nc2c(-c3ccc(S(=O)(=O)N4CC[S+]([O-])CC4)c(S(N)(=O)=O)c3-c3nnn[nH]3)cccc2s1 [Example 44, 3-(2-amino-1,3-benzothiazol-4-yl)-6-[(1-oxidothiomorpholin-4-yl)sulfonyl]-2-(1H-tetrazol-5-yl)benzenesulfonamide] | 12.5 µM | 6.25 µM | 2.00 | – | 2220 pM | 872 pM | 25 µM | 6.25 µM | 25 µM | 2060 pM |
| Nc1nc2c(-c3ccc(S(=O)(=O)NCC4(F)CNC4)c(S(N)(=O)=O)c3-c3nnn[nH]3)cccc2s1 [Example 46, 4-(2-amino-1,3-benzothiazol-4-yl)-N^1-[(3-fluoroazetidin-3-yl)methyl]-3-(1H-tetrazol-5-yl)benzene-1,2-disulfonamide] | 0.7813 µM | 1.563 µM | 0.50 | – | 289 pM | 57.2 pM | 3.125 µM | 1.563 µM | 6.25 µM | 321 pM |
| NCC(F)(F)CNS(=O)(=O)c1ccc(-c2cccc3sc(N)nc23)c(-c2nnn[nH]2)c1S(N)(=O)=O [Example 47, 4-(2-amino-1,3-benzothiazol-4-yl)-N1-(3-amino-2,2-difluoropropyl)-3-(1H-tetrazol-5-yl)benzene-1,2-disulfonamide] | 3.125 µM | 3.125 µM | 1.00 | – | 484 pM | 65.8 pM | 12.5 µM | 3.125 µM | 6.25 µM | 304 pM |
